{"source": "ChEMBL document CHEMBL4033774", "about": "“Class I HDAC Inhibitors: Potential New Epigenetic Therapeutics for Alcohol Use Disorder (AUD)” (J Med Chem, 2018)", "key": {"Mus musculus [1]": {"system": "Mus musculus", "experiment": "Decrease in alcohol intake in C57BL/6J mouse at 100 mg/kg, ip relative to control", "assay_type": "functional", "set-up": "scale not given: the % may be the effect or the level left"}, "Rattus norvegicus": {"system": "Rattus norvegicus", "experiment": "Decrease in alcohol intake in rat assessed as operant alcohol self-administration at 50 mg/kg, ip administered once in a week relative to control", "assay_type": "functional", "set-up": "scale not given: the % may be the effect or the level left"}, "Mus musculus [2]": {"system": "Mus musculus", "experiment": "Decrease in alcohol intake in C57BL/6J mouse at 50 mg/kg, ip relative to control", "assay_type": "functional", "set-up": "scale not given: the % may be the effect or the level left"}, "[3]": {"experiment": "Lipophilicity, log P of compound by LC-MS/MS analysis", "assay_type": "physicochemical", "settings": "octanol/water"}, "[4]": {"experiment": "Drug uptake in baboon hippocampus after 20 mins by LC-MS/MS analysis", "assay_type": "ADME, tissue-based", "settings": "papio anubis, in vivo"}, "Histone deacetylase 1 [5]": {"biological_target": "T1, Histone deacetylase 1 (Homo sapiens, UniProt Q13547)", "T1 sequence (Q13547 whole entry)": "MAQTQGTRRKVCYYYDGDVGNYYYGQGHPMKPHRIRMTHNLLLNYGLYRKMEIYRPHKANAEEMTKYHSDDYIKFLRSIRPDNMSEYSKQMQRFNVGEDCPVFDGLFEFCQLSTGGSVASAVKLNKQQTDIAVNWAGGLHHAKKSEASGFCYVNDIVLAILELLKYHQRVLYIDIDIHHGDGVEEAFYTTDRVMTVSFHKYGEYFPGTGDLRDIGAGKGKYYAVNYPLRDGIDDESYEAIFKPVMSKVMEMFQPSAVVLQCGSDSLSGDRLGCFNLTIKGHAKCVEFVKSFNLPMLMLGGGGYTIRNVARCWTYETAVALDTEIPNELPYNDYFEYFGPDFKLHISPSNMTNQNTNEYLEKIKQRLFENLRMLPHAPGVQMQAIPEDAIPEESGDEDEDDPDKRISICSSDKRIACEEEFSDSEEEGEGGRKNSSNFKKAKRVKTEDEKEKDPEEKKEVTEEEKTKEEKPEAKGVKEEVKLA", "experiment": "Inhibition of HDAC1 (unknown origin)"}, "[6]": {"biological_target": "T2, Polyamine deacetylase HDAC10 (Homo sapiens, UniProt Q969S8)", "T2 sequence (Q969S8 whole entry)": "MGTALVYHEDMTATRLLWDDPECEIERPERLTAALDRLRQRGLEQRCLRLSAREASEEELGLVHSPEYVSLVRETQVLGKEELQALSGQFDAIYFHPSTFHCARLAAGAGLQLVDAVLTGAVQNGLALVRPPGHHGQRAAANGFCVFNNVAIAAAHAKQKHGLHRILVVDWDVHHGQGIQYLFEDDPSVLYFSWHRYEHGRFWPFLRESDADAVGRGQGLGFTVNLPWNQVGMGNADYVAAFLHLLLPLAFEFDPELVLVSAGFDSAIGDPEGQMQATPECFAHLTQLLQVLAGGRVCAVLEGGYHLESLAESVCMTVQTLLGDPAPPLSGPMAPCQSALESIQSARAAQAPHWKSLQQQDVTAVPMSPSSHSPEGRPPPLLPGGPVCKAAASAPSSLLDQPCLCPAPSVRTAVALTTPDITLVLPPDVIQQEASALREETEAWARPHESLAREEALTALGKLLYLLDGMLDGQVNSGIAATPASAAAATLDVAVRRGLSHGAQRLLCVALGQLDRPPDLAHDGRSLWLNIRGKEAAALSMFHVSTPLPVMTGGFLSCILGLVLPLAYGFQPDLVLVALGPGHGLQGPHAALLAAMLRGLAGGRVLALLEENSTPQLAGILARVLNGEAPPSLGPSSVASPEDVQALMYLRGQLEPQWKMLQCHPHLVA", "experiment": "Inhibition of HDAC10 (unknown origin)"}, "Histone deacetylase 3": {"biological_target": "Histone deacetylase 3 (Homo sapiens, UniProt O15379)", "sequence (O15379 whole entry)": "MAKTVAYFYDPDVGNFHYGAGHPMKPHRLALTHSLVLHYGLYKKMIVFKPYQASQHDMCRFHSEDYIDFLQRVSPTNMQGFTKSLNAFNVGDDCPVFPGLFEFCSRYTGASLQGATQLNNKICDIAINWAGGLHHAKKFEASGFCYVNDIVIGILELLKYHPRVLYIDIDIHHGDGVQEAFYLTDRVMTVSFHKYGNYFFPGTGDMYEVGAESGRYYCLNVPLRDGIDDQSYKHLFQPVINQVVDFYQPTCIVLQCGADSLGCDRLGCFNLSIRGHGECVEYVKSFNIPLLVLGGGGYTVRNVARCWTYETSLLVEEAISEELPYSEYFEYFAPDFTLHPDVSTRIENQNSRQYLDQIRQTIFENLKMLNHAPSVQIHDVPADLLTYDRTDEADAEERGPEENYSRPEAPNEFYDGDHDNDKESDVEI", "experiment": "Inhibition of HDAC3 (unknown origin)"}, "Histone deacetylase 4": {"biological_target": "Histone deacetylase 4 (Homo sapiens, UniProt P56524)", "sequence (P56524 whole entry)": "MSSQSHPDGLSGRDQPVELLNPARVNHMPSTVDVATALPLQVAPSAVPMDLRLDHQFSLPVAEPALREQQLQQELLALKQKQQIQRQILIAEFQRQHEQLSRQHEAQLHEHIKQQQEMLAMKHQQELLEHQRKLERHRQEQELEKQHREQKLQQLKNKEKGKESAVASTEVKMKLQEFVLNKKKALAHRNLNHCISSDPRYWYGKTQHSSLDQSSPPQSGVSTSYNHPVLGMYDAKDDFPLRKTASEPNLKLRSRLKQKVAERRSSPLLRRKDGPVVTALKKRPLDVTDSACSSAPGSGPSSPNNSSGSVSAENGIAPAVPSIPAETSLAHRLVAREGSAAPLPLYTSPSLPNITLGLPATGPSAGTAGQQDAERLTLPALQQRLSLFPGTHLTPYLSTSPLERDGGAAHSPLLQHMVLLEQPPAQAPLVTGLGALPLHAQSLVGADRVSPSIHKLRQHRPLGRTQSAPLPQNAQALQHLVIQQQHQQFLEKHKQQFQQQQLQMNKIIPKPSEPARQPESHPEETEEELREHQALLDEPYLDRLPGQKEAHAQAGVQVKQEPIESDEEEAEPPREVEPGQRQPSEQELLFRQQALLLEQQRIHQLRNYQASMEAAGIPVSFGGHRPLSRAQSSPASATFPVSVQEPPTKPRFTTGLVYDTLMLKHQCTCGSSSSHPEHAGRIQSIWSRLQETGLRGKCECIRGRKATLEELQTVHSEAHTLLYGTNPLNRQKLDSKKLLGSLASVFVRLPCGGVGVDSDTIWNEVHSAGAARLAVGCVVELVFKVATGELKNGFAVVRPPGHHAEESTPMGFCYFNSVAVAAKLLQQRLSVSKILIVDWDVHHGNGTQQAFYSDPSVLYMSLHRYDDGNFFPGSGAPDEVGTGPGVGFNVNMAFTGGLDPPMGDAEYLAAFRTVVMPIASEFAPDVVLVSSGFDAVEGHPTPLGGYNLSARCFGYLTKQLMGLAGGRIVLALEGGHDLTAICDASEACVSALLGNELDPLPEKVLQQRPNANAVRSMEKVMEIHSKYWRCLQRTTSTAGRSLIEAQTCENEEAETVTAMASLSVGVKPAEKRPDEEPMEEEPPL", "experiment": "Inhibition of HDAC4 (unknown origin)"}, "[7]": {"biological_target": "T3, Protein deacetylase HDAC6 (Homo sapiens, UniProt Q9UBN7)", "T3 sequence (Q9UBN7 whole entry)": "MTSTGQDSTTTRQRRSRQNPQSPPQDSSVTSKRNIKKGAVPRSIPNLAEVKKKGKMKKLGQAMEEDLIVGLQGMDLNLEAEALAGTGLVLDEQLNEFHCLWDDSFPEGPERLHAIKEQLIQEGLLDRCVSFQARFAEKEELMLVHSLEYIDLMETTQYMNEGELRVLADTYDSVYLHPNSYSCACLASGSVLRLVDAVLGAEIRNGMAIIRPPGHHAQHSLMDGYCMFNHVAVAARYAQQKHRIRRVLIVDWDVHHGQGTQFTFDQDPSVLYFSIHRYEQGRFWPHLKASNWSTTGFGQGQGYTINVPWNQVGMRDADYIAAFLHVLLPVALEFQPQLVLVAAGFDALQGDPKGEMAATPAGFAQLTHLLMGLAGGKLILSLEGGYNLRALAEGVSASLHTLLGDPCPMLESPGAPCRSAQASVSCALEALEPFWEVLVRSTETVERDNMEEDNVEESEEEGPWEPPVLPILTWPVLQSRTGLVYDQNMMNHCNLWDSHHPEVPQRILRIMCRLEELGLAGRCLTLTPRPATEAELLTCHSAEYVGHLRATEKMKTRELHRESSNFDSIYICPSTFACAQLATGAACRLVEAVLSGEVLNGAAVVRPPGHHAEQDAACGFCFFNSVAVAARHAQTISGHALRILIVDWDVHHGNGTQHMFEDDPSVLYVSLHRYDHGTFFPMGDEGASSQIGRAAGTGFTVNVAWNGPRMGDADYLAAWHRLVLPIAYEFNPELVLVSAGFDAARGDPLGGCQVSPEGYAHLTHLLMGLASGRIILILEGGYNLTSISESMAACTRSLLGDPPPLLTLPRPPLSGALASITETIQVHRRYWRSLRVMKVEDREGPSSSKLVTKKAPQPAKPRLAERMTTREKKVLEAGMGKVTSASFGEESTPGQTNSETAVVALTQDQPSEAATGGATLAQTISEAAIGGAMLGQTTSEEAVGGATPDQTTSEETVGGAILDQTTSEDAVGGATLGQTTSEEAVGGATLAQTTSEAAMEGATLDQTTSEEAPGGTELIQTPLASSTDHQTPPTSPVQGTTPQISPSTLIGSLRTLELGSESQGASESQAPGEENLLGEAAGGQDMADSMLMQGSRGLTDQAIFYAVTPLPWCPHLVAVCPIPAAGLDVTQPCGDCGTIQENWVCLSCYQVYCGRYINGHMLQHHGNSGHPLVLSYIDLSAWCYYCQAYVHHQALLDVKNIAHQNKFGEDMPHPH", "experiment": "Inhibition of HDAC6 (unknown origin)"}, "Histone deacetylase 2 [8]": {"biological_target": "T4, Histone deacetylase 2 (Homo sapiens, UniProt Q92769)", "T4 sequence (Q92769 whole entry)": "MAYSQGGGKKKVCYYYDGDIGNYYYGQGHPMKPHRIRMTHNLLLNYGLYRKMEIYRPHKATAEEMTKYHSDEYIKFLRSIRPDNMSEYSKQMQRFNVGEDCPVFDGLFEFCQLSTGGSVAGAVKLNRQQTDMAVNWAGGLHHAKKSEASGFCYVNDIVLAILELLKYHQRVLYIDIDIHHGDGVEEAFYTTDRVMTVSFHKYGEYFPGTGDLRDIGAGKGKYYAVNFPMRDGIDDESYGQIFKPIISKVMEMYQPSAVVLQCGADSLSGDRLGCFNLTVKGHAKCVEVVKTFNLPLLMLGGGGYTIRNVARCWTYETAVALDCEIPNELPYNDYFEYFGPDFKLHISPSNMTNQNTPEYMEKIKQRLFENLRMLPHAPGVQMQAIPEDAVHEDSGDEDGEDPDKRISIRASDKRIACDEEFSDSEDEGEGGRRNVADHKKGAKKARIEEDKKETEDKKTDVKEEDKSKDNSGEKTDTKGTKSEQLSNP", "experiment": "Inhibition of HDAC2 (unknown origin)"}, "Histone deacetylase 11": {"biological_target": "T5, Histone deacetylase 11 (Homo sapiens, UniProt Q96DB2)", "T5 sequence (Q96DB2 whole entry)": "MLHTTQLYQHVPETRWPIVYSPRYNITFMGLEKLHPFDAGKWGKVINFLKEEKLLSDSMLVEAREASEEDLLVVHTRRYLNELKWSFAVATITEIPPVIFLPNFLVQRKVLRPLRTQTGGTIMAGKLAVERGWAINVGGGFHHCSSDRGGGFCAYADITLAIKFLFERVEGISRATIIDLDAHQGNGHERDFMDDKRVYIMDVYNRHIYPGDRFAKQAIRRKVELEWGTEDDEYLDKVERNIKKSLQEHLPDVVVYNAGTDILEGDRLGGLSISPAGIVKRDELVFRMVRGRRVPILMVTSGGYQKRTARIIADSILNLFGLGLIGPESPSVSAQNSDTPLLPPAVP", "experiment": "Inhibition of HDAC11 (unknown origin)"}, "[9]": {"biological_target": "T2, Polyamine deacetylase HDAC10", "experiment": "Inhibition of C-terminal 6His-tagged HDAC10 (unknown origin) (632 to 669 residues) expressed in baculovirus infected Sf9 insect cells incubated for 17 hrs in presence of FAM-labeled acetylated peptide substrate by fluorescence assay"}, "[10]": {"biological_target": "T3, Protein deacetylase HDAC6", "experiment": "Inhibition of full length 6His-tagged HDAC6 (unknown origin) expressed in baculovirus infected Sf9 insect cells incubated for 17 hrs in presence of FAM-labeled acetylated peptide substrate by fluorescence assay"}, "Histone deacetylase 2 [11]": {"biological_target": "T4, Histone deacetylase 2", "experiment": "Inhibition of full length 6His-tagged HDAC2 (unknown origin) expressed in baculovirus infected Sf9 insect cells incubated for 17 hrs in presence of FAM-labeled acetylated peptide substrate by fluorescence assay"}, "Histone deacetylase 8": {"biological_target": "T6, Histone deacetylase 8 (Homo sapiens, UniProt Q9BY41)", "T6 sequence (Q9BY41 whole entry)": "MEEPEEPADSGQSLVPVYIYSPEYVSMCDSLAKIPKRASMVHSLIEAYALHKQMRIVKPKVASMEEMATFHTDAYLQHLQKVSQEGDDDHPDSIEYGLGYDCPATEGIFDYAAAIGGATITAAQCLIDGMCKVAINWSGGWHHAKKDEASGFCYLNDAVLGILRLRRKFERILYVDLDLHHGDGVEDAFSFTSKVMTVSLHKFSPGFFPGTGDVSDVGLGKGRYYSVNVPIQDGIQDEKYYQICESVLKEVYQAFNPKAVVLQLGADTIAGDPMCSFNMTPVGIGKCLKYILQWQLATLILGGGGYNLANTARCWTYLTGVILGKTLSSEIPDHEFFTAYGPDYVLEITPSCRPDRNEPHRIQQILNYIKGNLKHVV", "experiment": "Inhibition of full length 6His-tagged HDAC8 (unknown origin) expressed in baculovirus infected Sf9 insect cells incubated for 17 hrs in presence of FAM-labeled acetylated peptide substrate by fluorescence assay"}, "Histone deacetylase 1 [12]": {"biological_target": "T1, Histone deacetylase 1", "experiment": "Inhibition of full length 6His-tagged HDAC1 (unknown origin) expressed in baculovirus infected Sf9 insect cells incubated for 17 hrs in presence of FAM-labeled acetylated peptide substrate by fluorescence assay"}}, "data": [{"smiles": "O=C(CCCCCCC(=O)Nc1ccccc1)NO", "note": "[VORINOSTAT]", "values": [{"measurement": "Activity", "setting": "Mus musculus [1]", "value": 40, "unit": "%"}, {"measurement": "Activity", "setting": "Rattus norvegicus", "value": 20, "unit": "%"}, {"measurement": "Activity", "setting": "Mus musculus [2]", "value": 40, "unit": "%"}]}, {"smiles": "COc1ccc(Cn2ccc3ccc(C(=O)NO)cc32)cc1", "values": [{"measurement": "logP", "setting": "[3]", "value": 2.61}, {"measurement": "Drug uptake", "setting": "[4]", "value": 30, "unit": "%"}]}, {"smiles": "COc1ccc(/C=C/C(=O)NO)c(-c2ccc(-c3ccccc3)cc2)c1", "values": [{"measurement": "IC50", "setting": "Histone deacetylase 1 [5]", "value": 3, "unit": "µM"}, {"measurement": "IC50", "setting": "[6]", "value": "> 20", "unit": "µM"}, {"measurement": "IC50", "setting": "Histone deacetylase 3", "value": 3, "unit": "µM"}, {"measurement": "IC50", "setting": "Histone deacetylase 4", "value": "> 20", "unit": "µM"}, {"measurement": "IC50", "setting": "[7]", "value": "> 20", "unit": "µM"}, {"measurement": "IC50", "setting": "Histone deacetylase 2 [8]", "value": "> 20", "unit": "µM"}, {"measurement": "IC50", "setting": "Histone deacetylase 11", "value": "> 20", "unit": "µM"}]}, {"smiles": "Nc1ccccc1NC(=O)CCCCCCC(=O)Nc1cccc(-c2cn(-c3ccccc3)nn2)c1", "values": [{"measurement": "IC50", "setting": "[9]", "value": "> 30", "unit": "µM"}, {"measurement": "IC50", "setting": "[10]", "value": "> 30", "unit": "µM"}, {"measurement": "IC50", "setting": "Histone deacetylase 2 [11]", "value": "> 30", "unit": "µM"}, {"measurement": "IC50", "setting": "Histone deacetylase 8", "value": "> 30", "unit": "µM"}, {"measurement": "IC50", "setting": "Histone deacetylase 1 [12]", "value": "> 30", "unit": "µM"}]}]}
